Experimental findings from ChEMBL document CHEMBL5365497, “Developing Novel Coumarin-Containing Azoles Antifungal Agents by the Scaffold Merging Strategy for Treating Azole-Resistant Candidiasis” (J Med Chem, 2023) are described below.

Series [1] relates to Candida albicans. Kind of series: Antifungal activity against Candida albicans CPCC400616 assessed as fungal growth inhibition by CLSI based microdilution method. It is filed as functional. (In broth dilution the organism is exposed to a series of concentrations in liquid medium.)
Series [2] relates to Candida albicans. The series can be described thus: Antifungal activity against Candida albicans SC5314 assessed as fungal growth inhibition by CLSI based microdilution method. It is filed as functional.
The test system of series [3] is Candida parapsilosis. The series can be described thus: Antifungal activity against Candida parapsilosis assessed as fungal growth inhibition by CLSI based microdilution method. Particulars: Lodderomyces parapsilosis. It is filed as functional.
The test system of series [4] is Nakaseomyces glabratus. Kind of series: Antifungal activity against Candida glabrata assessed as fungal growth inhibition by CLSI based microdilution method. It is filed as functional.
Series [5] deals with Pichia kudriavzevii. The series can be described thus: Antifungal activity against Pichia kudriavzevii assessed as fungal growth inhibition by CLSI based microdilution method. It is filed as functional.
The test system of series [6] is Candida tropicalis. Kind of series: Antifungal activity against Candida tropicalis assessed as fungal growth inhibition by CLSI based microdilution method. Type of series: functional.
Series [7] has as its system Cryptococcus neoformans. The series can be described thus: Antifungal activity against Cryptococcus neoformans assessed as fungal growth inhibition by CLSI based microdilution method. Type of series: functional.
In series [8] the test system is Candida albicans. The series can be described thus: Antifungal activity against fluconazole-resistant Candida albicans CaR assessed as fungal growth inhibition by CLSI based microdilution method. Type of series: functional.
Series [9] concerns Candida albicans. The series can be described thus: Antifungal activity against fluconazole-resistant Candida albicans 17# assessed as fungal growth inhibition by CLSI based microdilution method. Type of series: functional.
Series [10] deals with Candida albicans. Kind of series: Antifungal activity against fluconazole-resistant Candida albicans 632 assessed as fungal growth inhibition by CLSI based microdilution method. It is filed as functional.
In series [11] the test system is Candida albicans. Kind of series: Antifungal activity against fluconazole-resistant Candida albicans 904 assessed as fungal growth inhibition by CLSI based microdilution method. Type of series: functional.
Series [12] concerns Candida albicans. The series can be described thus: Antifungal activity against fluconazole-resistant Candida albicans 901 assessed as fungal growth inhibition by CLSI based microdilution method. Type of series: functional.
Series [13] concerns the target T1, Lanosterol 14-alpha demethylase (Candida albicans (strain SC5314 / ATCC MYA-2876) (Yeast), UniProt P10613). The series can be described thus: Inhibition of CYP51 in Candida albicans SC5314 assessed as ergosterol level at 0.03125 ug/ml incubated for 24 hrs by GC-MS analysis (reference value: 97.58 %). Also noted: scale not given: the % may be the effect or the level left. Conditions: at 0.03125 µg/mL.

For series [14], the target named is T1, Lanosterol 14-alpha demethylase. Kind of series: Inhibition of CYP51 in Candida albicans SC5314 assessed as increase in eburicol level at 0.03125 ug/ml incubated for 24 hrs by GC-MS analysis. Particulars: at 0.03125 µg/mL.
Series [15] shares this target. The series can be described thus: Inhibition of CYP51 in Candida albicans SC5314 assessed as increase in obtusifoliol level at 0.03125 ug/ml incubated for 24 hrs by GC-MS analysis. Conditions: at 0.03125 µg/mL.
The target is the same in series [16]. The series can be described thus: Inhibition of CYP51 in Candida albicans SC5314 assessed as increase in lanosterol level at 0.03125 ug/ml incubated for 24 hrs by GC-MS analysis. Particulars: at 0.03125 µg/mL.
Series [17] has as its system Candida albicans. Kind of series: Antifungal activity against Candida albicans CPCC400616 assessed as inhibition of yeast to hypha morphological transition at 2 ug/ml incubated for 4 hrs by inverted microscopy. Particulars: dose 2.0 µg/ml. It is filed as functional, organism-based.
In series [18] the test system is Candida albicans. The series can be described thus: Antifungal activity against fluconazole-resistant Candida albicans 904 assessed as inhibition of yeast to hypha morphological transition at 16 ug/ml incubated for 4 hrs by inverted microscopy. It is filed as functional, organism-based. Particulars: dose 16.0 µg/ml.
Series [19] concerns Candida albicans. The series can be described thus: Antibiofilm activity against Candida albicans CPCC400616 incubated for 24 hrs by XTT reduction assay. It is filed as functional, organism-based. Particulars: dose <= 128.0 µg/ml. For orientation: Tetrazolium assays rely on reduction of a dye to a coloured formazan, in cell work by metabolically active cells.
The test system of series [20] is Candida albicans. Kind of series: Antibiofilm activity against fluconazole-resistant Candida albicans 904 incubated for 24 hrs by XTT reduction assay. Type of series: functional, organism-based. Conditions: dose <= 128.0 µg/ml.
In series [21] the test system is Candida albicans. Kind of series: Antifungal activity against Candida albicans CPCC400616 assessed as reduction in EFG1 expression at 2 ug/ml incubated for 12 hrs by RT-PCR analysis. It is filed as functional, organism-based. Particulars: dose 2.0 µg/ml.
For series [22], the system named is Candida albicans. The series can be described thus: Antifungal activity against fluconazole-resistant Candida albicans 904 assessed as reduction in EFG1 expression at 16 ug/ml incubated for 12 hrs by RT-PCR analysis. It is filed as functional, organism-based. Particulars: dose 16.0 µg/ml.
Series [23] relates to Candida albicans. Kind of series: Antifungal activity against Candida albicans CPCC400616 assessed as reduction in TEC1 expression at 2 ug/ml incubated for 12 hrs by RT-PCR analysis. Type of series: functional, organism-based. Particulars: dose 2.0 µg/ml.
The subject of series [24] is Candida albicans. The series can be described thus: Antifungal activity against fluconazole-resistant Candida albicans 904 assessed as reduction in TEC1 expression at 16 ug/ml incubated for 12 hrs by RT-PCR analysis. Type of series: functional, organism-based. Particulars: dose 16.0 µg/ml.
For series [25], the system named is Candida albicans. The series can be described thus: Antifungal activity against Candida albicans CPCC400616 assessed as reduction in CPH1 expression at 2 ug/ml incubated for 12 hrs by RT-PCR analysis. It is filed as functional, organism-based. Conditions: dose 2.0 µg/ml.
For series [26], the system named is Candida albicans. Kind of series: Antifungal activity against fluconazole-resistant Candida albicans 904 assessed as reduction in CPH1 expression at 16 ug/ml incubated for 12 hrs by RT-PCR analysis. Conditions: dose 16.0 µg/ml. Type of series: functional, organism-based.
In series [27] the test system is Candida albicans. The series can be described thus: Antifungal activity against Candida albicans CPCC400616 assessed as reduction in ALS3 expression at 2 ug/ml incubated for 12 hrs by RT-PCR analysis. It is filed as functional, organism-based. Conditions: dose 2.0 µg/ml.
Series [28] has as its system Candida albicans. Kind of series: Antifungal activity against fluconazole-resistant Candida albicans 904 assessed as reduction in ALS3 expression at 16 ug/ml incubated for 12 hrs by RT-PCR analysis. It is filed as functional, organism-based. Conditions: dose 16.0 µg/ml.
For series [29], the system named is Candida albicans. The series can be described thus: Antifungal activity against fluconazole-resistant Candida albicans 904 assessed as decrease in ERG11 expression at 16 ug/ml measured after 16 hrs by RT-PCR analysis. Type of series: functional, organism-based. Particulars: dose 16.0 µg/ml.
For series [30], the system named is Candida albicans. Kind of series: Antifungal activity against fluconazole-resistant Candida albicans 904 assessed as decrease in CDR1 expression at 16 ug/ml measured after 16 hrs by RT-PCR analysis. It is filed as functional, organism-based. Conditions: dose 16.0 µg/ml.
For series [31], the system named is Candida albicans. The series can be described thus: Antifungal activity against fluconazole-resistant Candida albicans 904 assessed as decrease in CDR2 expression at 16 ug/ml measured after 16 hrs by RT-PCR analysis. Conditions: dose 16.0 µg/ml. It is filed as functional, organism-based.
Series [32] relates to Candida albicans. The series can be described thus: Antifungal activity against fluconazole-resistant Candida albicans 904 assessed as decrease in MDR1 expression at 16 ug/ml measured after 16 hrs by RT-PCR analysis. It is filed as functional, organism-based. Conditions: dose 16.0 µg/ml.
Series [33] deals with Candida albicans. Kind of series: Induction of ROS production in fluconazole-resistant Candida albicans 904 at 64 ug/ml incubated for 30 mins by fluorescence microscopy. Conditions: dose 64.0 µg/ml. Type of series: functional, organism-based.
The nature of series [34]: Metabolic stability in mouse liver microsomes assessed as half life incubated for 5 to 60 mins by LC-MS/MS analysis. Type of series: ADME, Microsome. Conditions: time 5-60 min. In general terms: Liver microsomes are vesicles of endoplasmic reticulum, rich in cytochrome P450 enzymes.
The nature of series [35]: Stability in mouse plasma assessed as compound remaining at 1 uM measured for 180 mins by LC-MS/MS analysis. Particulars: read-out: Stability. It is filed as ADME, cell-free.
Series [36] can be described thus: Stability in mouse plasma assessed as half life at 1 uM measured for 180 mins by LC-MS/MS analysis. Type of series: ADME, cell-free.
Series [37] can be described thus: Cytotoxicity against mouse J774.A1 cells assessed as cell growth inhibition by MTT assay. It is filed as toxicity, cell-based.

≈ marks a conversion by molar mass, not a printed value. Calls of active or inactive are those of the source.

T1 sequence (P10613 whole entry): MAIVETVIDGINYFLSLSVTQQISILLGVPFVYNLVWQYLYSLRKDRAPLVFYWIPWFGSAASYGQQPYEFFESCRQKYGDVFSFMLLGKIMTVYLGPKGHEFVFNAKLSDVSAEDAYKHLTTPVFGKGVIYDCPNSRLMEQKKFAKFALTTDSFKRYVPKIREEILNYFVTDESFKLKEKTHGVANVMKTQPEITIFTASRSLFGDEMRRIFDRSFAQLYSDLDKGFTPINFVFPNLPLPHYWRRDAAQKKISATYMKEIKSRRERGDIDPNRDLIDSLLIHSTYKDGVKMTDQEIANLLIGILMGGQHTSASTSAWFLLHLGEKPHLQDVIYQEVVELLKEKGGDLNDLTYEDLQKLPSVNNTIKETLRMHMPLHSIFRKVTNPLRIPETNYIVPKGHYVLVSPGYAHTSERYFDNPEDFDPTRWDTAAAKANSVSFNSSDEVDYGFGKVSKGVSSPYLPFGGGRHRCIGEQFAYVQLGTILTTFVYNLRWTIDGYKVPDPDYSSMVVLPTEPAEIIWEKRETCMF

As to `O=c1oc2ccccc2cc1COC(Cn1ccnc1)c1ccc(F)cc1` (stereo not drawn), the MIC in series [1] is 0.06 µg/mL (≈ 0.165 µM); in [2], 0.03 µg/mL (≈ 0.0823 µM); in series [3] it was less than 0.25 µg/mL; in series [4], 1 µg/mL (≈ 2.74 µM); in series [5] it was 1 µg/mL (≈ 2.74 µM); in series [6], 0.5 µg/mL (≈ 1.37 µM). Also, the MIC in series [7] turned out to be 0.125 µg/mL (≈ 0.343 µM); in series [8], 0.5 µg/mL (≈ 1.37 µM); in series [9] it was 2 µg/mL (≈ 5.49 µM); in series [10], 8 µg/mL (≈ 22 µM); in [11], 4 µg/mL (≈ 11 µM); in [12], 8 µg/mL (≈ 22 µM).
As to `O=c1ccc2ccc(COC(Cn3ccnc3)c3ccc(F)cc3)cc2o1` (stereo not drawn), the MIC is 2 µg/mL (≈ 5.49 µM) in series [1]; 0.5 µg/mL (≈ 1.37 µM) in series [2]; 16 µg/mL (≈ 43.9 µM) in series [3]; 64 µg/mL (≈ 176 µM) in [4]; 32 µg/mL (≈ 87.8 µM) in series [5]; 4 µg/mL (≈ 11 µM) in series [6]. Further, the MIC amounted to 4 µg/mL (≈ 11 µM) in [7]; 128 µg/mL (≈ 351 µM) in [8]; 128 µg/mL (≈ 351 µM) in series [9]; 32 µg/mL (≈ 87.8 µM) in series [10]; 32 µg/mL (≈ 87.8 µM) in series [11]; 64 µg/mL (≈ 176 µM) in series [12].
As for `O=c1oc2ccccc2cc1COC(Cn1ccnc1)c1ccc(F)cc1F` (stereo not drawn), the MIC in series [1] is 0.06 µg/mL (≈ 0.157 µM); in series [2], 0.03 µg/mL (≈ 0.0785 µM); in series [3], less than 0.25 µg/mL; in series [4] it was 1 µg/mL (≈ 2.62 µM); in series [5], 0.5 µg/mL (≈ 1.31 µM); in series [6], 1 µg/mL (≈ 2.62 µM). Besides, the MIC in series [7] was 0.06 µg/mL (≈ 0.157 µM); in series [8], 0.5 µg/mL (≈ 1.31 µM); in [9], 2 µg/mL (≈ 5.23 µM); in [10], 4 µg/mL (≈ 10.5 µM); in series [11], 2 µg/mL (≈ 5.23 µM); in series [12] it was 16 µg/mL (≈ 41.8 µM).
In the case of `O=c1oc2ccccc2cc1COC(Cn1ccnc1)c1ccc(Cl)cc1Cl` (stereo not drawn), the MIC in [1] is 0.06 µg/mL (≈ 0.144 µM); in [2], 0.03 µg/mL (≈ 0.0722 µM); in [3], less than 0.25 µg/mL; in series [4], 1 µg/mL (≈ 2.41 µM); in series [5], 0.25 µg/mL (≈ 0.602 µM); in series [6] it was 0.5 µg/mL (≈ 1.2 µM). Moreover, the MIC amounted to 0.015 µg/mL (≈ 0.0361 µM) in [7]; 0.5 µg/mL (≈ 1.2 µM) in series [8]; 8 µg/mL (≈ 19.3 µM) in series [9]; 8 µg/mL (≈ 19.3 µM) in [10]; 2 µg/mL (≈ 4.82 µM) in series [11]; 4 µg/mL (≈ 9.63 µM) in series [12]. Also, the Activity was 16.17% in [13], “Dose-Dependent Effect” in series [19] and “Dose-Dependent Effect” in series [20]. The “inhibition (INH)” value in [14], in [15] and in series [16] was “Active” in each case. For the same compound, the inhibition result in series [17] and in series [18] was “Active” throughout. Moreover, the outcome in series [21], in series [22], in series [23], in [24], in series [25] and in series [26] was Active. The outcome in series [27], in [28], in [29], in series [30], in series [31] and in [32] was Active. The result in series [33] was Active. The half-life in series [34] is 2.8 min. Besides, the remaining at 3 h, 1 µM in series [35] turned out to be 2.2%. Further, the half-life at 1 µM in series [36] came to 34 min. Further, the IC50 in [37] worked out at 24.4 µM.

In general, MIC refers to the lowest concentration that inhibits growth of the organism. In general, half-life refers to the time needed for the level to fall by half in the phase considered. One may read the IC50 as the point on the concentration scale where inhibition reaches its midpoint.
